Data set [1] concerns LNCaP and LAPC-4 cells. The data set is described as follows: Apoptosis by automated high-throughput microscopy (Hoechst / propidium iodide). It counts as cell-based. The following applies: 48 h. The protocol:
Apoptosis in LNCaP and LAPC-4 cells was measured using an automated high-throughput microscopy method known in the art. In brief, LNCaP and LAPC4 cells (5×10^3) were seeded in a 96-well plate format. Cells were treated with 10^-9 - 10^-6 M X15695, DMSO or etoposide (250 µM) for 48h. Cells were stained with Hoechst 33342 (0,15 µg/ml) and propidium iodide (PI) (0,25 µg/ml) for 30 min at 37°C. Four brightfield and fluorescence images were acquired from different positions in each well using an automated Olympus IX81 fluorescence microscope (Olympus, Hamburg, Germany). The Hoechst dye was detected at excitation 350 nm and emission 450 nm and PI dye was detected at 488 nm and 590 nm. The total number of cells (all Hoechst-stained nuclei) as well as the number of early apoptotic, late apoptotic, and necrotic cells (combination of Hoechst and PI nuclei intensity) was obtained by analyzing images with the scan^R software (version 2.7.3, Olympus, Hamburg, Germany).

In data set [2] the test system is BAG1. The data set is described as follows: Western blot of BAG1 level in breast cancer cells. The data set is classed as cell-based. The following applies: MCF-7 and T47D cells, 48 h. For orientation: A western blot detects proteins with antibodies after separation by electrophoresis.
Method: (§1) For Western blotting, cells were lysed in NP-40 lysis buffer (1% NP-40, 50 mM Tris-HCl, pH 8.0, 150 mM NaCl, 5 mM EDTA) or 1× passive lysis buffer (Promega, Germany) for 15 min on ice. Cell debris was removed by centrifugation at 13,000 rpm for 10 min and used for SDS-polyacrylamide gel electrophoresis (PAGE) and Western blotting.
(§2) Western Blotting was carried out using standard protocols with antibodies: p53 (clone DO1), p53 (Sp5, Thermo Fisher Scientific Karlsruhe, Germany), Mdm2 (4B2, Abcam, Cambridge, UK). […] Secondary goat anti-mouse and goat anti-rabbit antibodies were purchased from DAKO (Bollschweil, Germany).
Data set [3] addresses T1, BAG1L (Homo sapiens, UniProt Q99933).
T1 construct: endogenous in cells; host or cells: MCF-7
The data set is described as follows: Cellular thermal shift assay (Tagg-CETSA) in MCF-7 cells. The conditions noted are these: 1 µM, 1 h. The data set is classed as binding. The protocol: To determine the aggregation temperature (Tagg-CETSA), MCF-7 cells were harvested and resuspended at a concentration of 2×10^6 cells/ml. X15695 (1 µM) or the same volume of DMSO were added to the cell suspension and incubated for 1 h at 37°C. Cells were washed and resuspend with phosphate-buffered saline (PBS) to a final concentration of 3×10^7 cells/ml. The cell suspension was evenly distributed into different tubes and treated with a gradient of temperature ranging from 37 to 62°C for 3 min. Cells were incubated 3 min at room temperature to ensure a uniform temperature between different tubes and then snap frozen with liquid nitrogen. Cells were lysed by freeze/thaw cycles with liquid nitrogen and centrifuged at 20,000 g for 20 min. Stable BAG proteins present in the supernatant were quantified by Western blotting using an anti-BAG1, 2, 3, and 5 antibodies and β-actin antibody for loading control.

The test system of data set [4] is p53. The data set is described as follows: Western blot of p53 level in breast cancer cells. The data set is classed as cell-based. The following applies: 48 h.
Method: as §1, §2
The subject of data set [5] is LAPC-4 tumors. The data set is described as follows: Mouse xenograft experiment, LAPC-4. It counts as in vivo. The conditions noted are these: LAPC-4 xenograft, 42 days. The protocol: MCF-7 and LAPC-4 cells (2×10^6) were suspended in 100 µl PBS: Matrigel (Corning NY USA, 1:1) and injected subcutaneously into both flanks of 6-7 weeks old female (for MCF-7 cells) and male (for LAPC-4 cells) athymic nude-Foxn1^nu mice (Envigo RMS GmbH, Düsseldorf, Germany). When tumor volumes were around 50 to100 mm^3, mice were randomized into four groups (7 mice per group) and treated daily by oral gavage as follows: (1) Control group (Vehicle) (corn oil, 1.0% dimethyl sulfoxide (DMSO) and (2) X15695 group, 30 mg per kg body weight) for the MCF-7 tumors or (1) Control group (Vehicle) (corn oil, 1.0% dimethyl sulfoxide (DMSO) ([…]), (3) X15695 group, 30 mg per kg body weight) and, (4) X15695 group (15 mg per kg body weight) for the LAPC-4 tumors. Body weight and tumor volumes were measured twice a week. Tumor volume was measured with a digital vernier caliper and calculated using the formula vol = length × width × height × 0.5236 and recorded or calculated relative to the starting volume which was nominally set at 100%. After 16 days for the MCF-7 tumors or 42 days for the LAPC-4 tumors, mice were sacrificed and the tumors removed, photographed, and weighed. Percent body weight change was calculated using the following formula: group percent weight change = [(new weight - initial weight)/initial weight] × 100]. Tumors were snap-frozen and stored for Western blot analysis.

Data set [6] has as its system p53 target genes. The data set is described as follows: Quantitative RT-PCR of p53 target genes in MCF-7 and T47D cells. It counts as cell-based. The conditions noted are these: 1 µM, absence and presence of E2, 16 h. The protocol:
MCF-7, T47D and LNCaP cells (5×10^4 each) were seeded in 6-well plates and cultured with hormone-depleted medium for 3 days. Subsequently, the MCF-7 and T47D cells were treated with 10 nM 17-β-estradiol (E2) or dihydrotestosterone (DHT) for the LNCaP cells, 1 µM) X15695 (for the MCF-7 and T47D cells) or 5 µM) for LNCaP cells and X15695 together with E2 or DHT. A 1 h pre-treatment with X15695 was performed prior to treatment with E2 or DHT for 16 h. RNA was extracted using innuPREP RNA mini Kit 2.0 (Analytic Jena, Berlin, Germany). 1 µg RNA per sample was used as input material for the RNA sample preparations. Sequencing libraries were generated using NEBNext® UltraTM RNA Library Prep Kit for Illumina® (NEB, USA) following the manufacturer's recommendations and index codes were added to attribute sequences to each sample. The clustering of the index-coded samples was performed on a cBot Cluster Generation System using PE Cluster Kit cBot-HS (Illumina) according to the manufacturer's instructions. After cluster generation, the library preparations were sequenced on an Illumina platform and paired-end reads were generated. Library preparation and sequencing were carried out by Novogene Europe, Cambridge, UK. […] Select target genes were analyzed by RT-PCR experiments with RNA from the samples used for the RNA-seq analysis. […]

Data set [7] has as its system MCF-7 and T47D cells. The data set is described as follows: Apoptosis assessment, 7-AAD and Annexin V double staining. The data set is classed as cell-based. The conditions noted are these: 1 µM, 48 h. The protocol:
Induction of apoptosis in response to treatment with X15695 was analyzed in MCF-7 and T47D cells using PE Annexin V Apoptosis Detection Kit with 7-AAD (BD Bioscience, San Diego, CA, USA) according to the manufacturer's protocol. In short, cells were harvested by trypsinization, and single cell suspensions (1×10^6 cells) were prepared as described above in 100 µl PBS. Cells were stained with 5 µl PE Annexin V and 5 µl 7-AAD for 15 min at room temperature in the dark. Subsequently, 400 µl PBS were added to each sample and flow cytometry measurements were performed within one hour. Cells stained with PE Annexin V or 7-AAD alone were used for compensation. Flow cytometry analysis was performed using BD FACSAria (BD Biosciences, Franklin Lakes, NJ, USA). Flow cytometry data were analyzed using FlowJo 10.8.1 cytometry analysis software (FlowJo, LLC).

T1 sequence (Q99933 whole entry): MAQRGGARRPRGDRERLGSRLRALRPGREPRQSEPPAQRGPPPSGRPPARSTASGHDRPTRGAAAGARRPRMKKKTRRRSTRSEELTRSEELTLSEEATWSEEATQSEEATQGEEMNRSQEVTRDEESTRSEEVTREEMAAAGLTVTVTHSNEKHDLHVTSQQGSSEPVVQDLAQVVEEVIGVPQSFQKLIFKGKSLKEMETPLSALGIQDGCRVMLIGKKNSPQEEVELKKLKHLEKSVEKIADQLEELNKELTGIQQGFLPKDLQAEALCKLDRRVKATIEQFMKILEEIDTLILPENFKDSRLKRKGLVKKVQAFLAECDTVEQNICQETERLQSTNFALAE

In the case of `Fc1ccc(-c2cn3cc(C(F)(F)F)cc(Cl)c3n2)cc1` [Compound X15695, 8-Chloro-2-(4-fluorophenyl)-6-(trifluoromethyl)imidazo[1,2-a]pyridine], the values for the apoptosis result in data set [1] and in data set [7] were “No apoptotic effect” and “increased number of the cells in the late stage of apoptosis”, respectively. Further, the “level of the BAG1 proteins” value in data set [2] is given as “dose-dependent decrease in the level of the BAG1 proteins”. The “increase of aggregation temperature (Tagg) over vehicle” value in data set [3] is 1-2 °C. Besides, the p53 level result in data set [4] (MCF-7 cells (wild-type p53)) is on record as “significantly increased”; in data set [4] (T47D cells (mutated p53 L194F)), “not in T47D cells”. For the same compound, the tumor growth entry in data set [5] (oral 30 mg/kg/day, less effective than enzalutamide (10 mg/kg/day)) is recorded as “effectively inhibit tumor growth over vehicle”. Further, the “tolerability, body weight” value in data set [5] (oral) is “well tolerated during the study and no sign of toxicity or weight loss was observed”. The “expression of p53 target genes” value in data set [6] was “upregulation of expression of p53 target genes”.

(Values after patent publication EP4417202A1, “ANTI-CANCER ACTION OF BAG1-SELECTIVE IMIDAZOPYRIDINE COMPOUNDS IN STEROID HORMONE RECEPTOR-POSITIVE BREAST AND PROSTATE CANCER” (Karlsruher Institut für Technologie, priority 2023, dated 2024).)
